pIC50: −log10 of the molar value. Like-named read-outs stand apart in the source and are kept apart here.
Columns and labels:
HCVcc = HCVcc infection of Huh-7 cells (Gaussia luciferase); type: cell-based, HCV; settings: Hepatitis C virus, Huh-7, 30 h, read-out: IC50 HCVcc
Procedure: The cell culture-produced HCV particles (HCVcc) used in this study were based on the JFH1 strain [36] and were prepared as described previously. They were engineered to express the A4 epitope, titer-enhancing mutations and Gaussia luciferase.
(§1) To identify ligands that inhibit HCV infection, Huh-7 cells were seeded in 96-well plates and treated the day after with six different concentrations of each ligand diluted in DMSO in duplicate using a Zephyr automated liquid handling workstation (Caliper BioSciences, Hopkinton, Mass.). The final concentration of DMSO (1%) was adjusted to be the same for all ligand concentrations. Cells treated with DMSO were used as negative controls. Cells treated with different concentrations of anti-CD81 (JS-81 from BD Pharmingen, San Jose, Calif.) 1 hour before infection, were also used as positive controls. The third day, RD114pp, HCVpp or HCVcc were inoculated and incubated for 30 hours at 37° C. Firefly and Gaussia luciferase assays were performed as indicated by the manufacturer (Promega, San Luis Obispo, Calif.).
(§2) The remaining ligands were next tested against pseudotyped retroviral particles harboring genotype-2a HCV envelope proteins (HCVpp 2a), cell culture produced HCV particles (HCVcc) or RD114pp. As a positive control, an anti-CD81 antibody was used in parallel.

recombinant E2 protein = target: T1, recombinant E2 protein (Hepatitis C virus genotype 1b, UniProt Q9WMX2); experiment: Surface plasmon resonance (Biacore T100) binding to recombinant E2 immobilized on CM5 chip; settings: for Binding (RU): 200 μM ligand in PBS, 3 min association; for rate of ligand dissociation (in words): compared to the other ligands; for Dissociation 1 (RU): response remaining 10 sec after rinsing with buffer; for Dissociation 2 (RU): response remaining 50 sec after rinsing with buffer
T1 construct: encoding amino acids 384-656 of the Con1 envelope protein 2 ectodomain (eE2); made in house; host or cells: HEK293T cells (lentiviral, secreted)
Source text: A construct containing the sequence encoding amino acids 384-656 of the Con1 envelope protein 2 ectodomain (eE2), a genoptype 1 E2 sequence, was cloned into a lentiviral expression vector with a carboxy-terminal Protein A tag separated by a PreScission Protease cleavage consensus sequence. eE2-ProtA was stably expressed in HEK293T cells using lentiviral infection. The protein was secreted into the media and supernatants were purified using IgG Sepharose (GE Healthcare, Piscataway, N.J.). eE2-ProtA was eluted with 100 mM sodium citrate and 20 mM KCl at pH 3 directly into tubes containing 1M Tris pH 9 for immediate neutralization. PreScission Protease was added to the eluted sample at a ratio of 1:50 (enzyme:eE2), and the digest was then dialyzed into 20 mM HEPES pH 7.5, 250 mM NaCl, 5% glycerol. eE2 was separated from the cleaved tag and the PreScission Protease by ion exchange chromatography.
The set of 34 of the ligands predicted by AutoDock to bind to E2 were tested experimentally to determine if they bind to recombinant E2 protein immobilized on a chip using surface Plasmon resonance. The SPR analyses were performed using a Biacore T100 workstation (GE Healthcare, NJ, USA) and Prot-A-tagged HCV E2 protein. 1 μM ProtA-HCV E2 was diluted into 10 mM sodium acetate buffer pH 5 and immobilized for 15 min at a flow speed of 5 μl/min onto a CM5 sensor chip using amine coupling (EDC-NHS). Approximately 10,000 response units (RU) of protein were immobilized on the chip. His-CD81-LEL (Bioclone-CA/USA) binding to HCV E2 was tested prior to injecting the ligands to confirm the E2 protein was functional and would bind CD81-LEL. In a typical experiment with CD81, […] of his-CD81 in 114 μl PBS was injected into channel 2 and 106.4 RUs of CD81 bound to the E2 on the chip. This was followed by testing the binding of the 34 virtual screening hits where the ligands were prepared as 200 μM solutions in PBS and they were introduced to the protein using a pre-programmed 3 min association and 1 min dissociation interval. The response was measured at two time points during dissociation, 10 and 50 seconds, to obtain information on the rate of ligand dissociation from E2. Twenty-three of the ligands predicted by AutoDock to bind to E2 were observed by SPR to bind to the recombinant protein (Table 2). The measured responses for the ligands that bound varied from 54 to 276 RUs. Data was also obtained on the rate of ligand dissociation by measuring the amount of ligand remaining bound at two time points, dissociation 1 (10 seconds) and dissociation 2 (50 seconds), during the rinsing of the chip with buffer (FIG. 8). The majority of the ligands dissociated quickly, as one might expect for small molecules that bind to the surface of a protein.

RD114pp = RD114pp infection of Huh-7 cells (luciferase); type: cell-based, feline endogenous virus RD114; settings: read-out: IC50 RD114pp
Procedure: (§3) Pseudotyped retroviral particles harboring HCV envelope proteins (HCVpp) from different genotypes were produced as described previously. A plasmid encoding the feline endogenous virus RD114 glycoprotein [35] was used for the production of RD114pp. Both HCVpp and RD114pp expressed Firefly luciferase.
as §1
Pseudotyped retroviral particles harboring the envelope protein of an endogenous feline retrovirus (RD114pp) were first used to determine the specificity and the safety of molecules.

HCVpp 2a = HCVpp 2a infection of Huh-7 cells, 96-well (luciferase); type: cell-based, HCV; settings: Hepatitis C virus, Huh-7, 30 h, read-out: IC50 HCVpp
Procedure: as §3, §1, §2

[1] = Feline endogenous virus RD114, Huh-7, 30 h

T1 sequence (Q9WMX2 384-656): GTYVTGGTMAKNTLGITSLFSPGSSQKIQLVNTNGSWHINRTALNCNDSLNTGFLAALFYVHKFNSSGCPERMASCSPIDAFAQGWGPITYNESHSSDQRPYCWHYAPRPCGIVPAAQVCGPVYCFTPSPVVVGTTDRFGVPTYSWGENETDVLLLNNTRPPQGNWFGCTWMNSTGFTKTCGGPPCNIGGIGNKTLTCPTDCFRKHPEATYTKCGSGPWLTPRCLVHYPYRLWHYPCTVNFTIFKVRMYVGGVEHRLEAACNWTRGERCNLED

SMILES	pIC50 (HCVcc)	Binding (RU) (recombinant E2 protein)	rate of ligand dissociation (in words) (recombinant E2 protein)	Dissociation 1 (RU) (recombinant E2 protein)	Dissociation 2 (RU) (recombinant E2 protein)	pIC50 (RD114pp; [1])	pIC50 (HCVpp 2a)	binding to recombinant E2 protein by SPR (in words) (recombinant E2 protein)	pIC50 (RD114pp; Huh-7 cells, 30 hours)
O=S(=O)(F)c1ccc2nc(-c3cccc(Sc4ccccc4)c3)cc(Cl)c2c1 [Ligand 158413, 4-chloro-2-(3-phenylsulfanylphenyl) quinoline-6-sulfonyl fluoride]	< 5.00	71.2 RU	slower off rates	10.3 RU	8.5 RU	< 5.00	< 5.00		
CC12CCC3C(CCC4Cc5[nH]c6ccccc6c5CC43C)C1CCC2O (stereo not drawn) [Ligand 60785]		70.4 RU		2.8 RU	0.6 RU	5.46			
COc1ccc(C2=C[C@@H](c3ccc(OC)c(OC)c3)c3c(c4ccccc4oc3=O)O2)cc1OC [Ligand 211490, (4S)-2,4-bis(3,4-dimethoxyphenyl)-4H-pyrano[3,2-c]chromen-5-one]		102.9 RU		6.1 RU	2.1 RU	6.30			
CC1(C)N=C(N)N=C(N)N1c1ccc(OCCCOc2ccccc2)c(Cl)c1 [Ligand 133071, 3-[3-chloro-4-(3-phenoxypropoxy)phenyl]-4,4-dimethyl-1H-1,3,5-triazin-3-ium-2,6-diamine]		276.3 RU		1.8 RU	−2 RU	7.00			
O=[N+]([O-])c1cc([N+](=O)[O-])c2cccnc2c1O [Ligand 57103]		81.6 RU	slower off rates	11.4 RU	2.5 RU	6.52			
O=C1CCCc2cc3c(cc21)CC1(C3)Cc2cc3c(cc2C1)C(=O)CCC3 [Ligand 670283, 2,2′-spirobi[3,6,7,8-tetrahydro-1H-cyclopenta[g]naphthalene]-5,5′-dione]		54.3 RU		4 RU	1.4 RU	5.52			
NC1=Nc2ccccc2C(=O)[N+]1=C(N)N [Ligand 403379, 2-amino-3-(diaminomethylidene) quinazolin-3-ium-4-one]	< 5.00	58 RU		2.8 RU	1.1 RU	< 5.00	< 5.00		
NC1=N/C(=N\c2ccccc2)N[C@H](c2ccccc2)N1 [Ligand 3076, (4R)-6-N,4-diphenyl-1,4-dihydro-1,3,5-triazine-2,6-diamine]		92.2 RU		3.2 RU	1.6 RU	6.60			
O=C(Nc1cccc([N+](=O)[O-])c1)c1cccc(C(=O)Nc2cccc([N+](=O)[O-])c2)c1 [Ligand 204232]	< 5.00	63.4 RU		2.5 RU	0.4 RU	< 5.00	< 5.00		
Nc1nc(N)nc(-c2ccccc2-c2nc(N)nc(N)n2)n1 [Ligand 4429, 6-[2-(4,6-diamino-1,3,5-triazin-2-yl)phenyl]-1,3,5-triazine-2,4-diamine]	< 5.00	155.3 RU	slower off rates	28.9 RU	14.2 RU	< 5.00	< 5.00		
Cc1ccc([N+](=O)[O-])cc1NC(=O)Nc1onc(C)c1C [Ligand 213700, 1-(3,4-dimethyl-1,2-oxazol-5-yl)-3-(2-methyl-5-nitrophenyl)urea]	< 5.00	62 RU		3.1 RU	0.8 RU	< 5.00	< 5.00		
Cc1nc(/N=C(\N)N(C)C)[nH]c(=O)c1C [Ligand 113486, 2-(5,6-dimethyl-4-oxo-1H-pyrimidin-2-yl)-1,1-dimethylguanidine]	< 5.00	104.7 RU		7 RU	2.6 RU	< 5.00	< 5.00		
O=C(O)C[C@H]1OCC=C2CN3CC[C@]45c6ccccc6N[C@H]4[C@H]1[C@H]2C[C@H]35 [Ligand 121861]	< 5.00	88.4 RU	slower off rates	26.1 RU	20.4 RU	< 5.00	< 5.00	bound	
c1ccc(-c2ccc3c(c2)N[C@H]([C@H]2Nc4cc(-c5ccccc5)ccc4O2)O3)cc1 [Ligand 84100, (2S)-5-phenyl-2-[(2S)-5-phenyl-2,3-dihydro-1,3-benzoxazol-2-yl]-2,3-dihydro-1,3-benzoxazole]	< 5.00	71.2 RU		4.2 RU	2.2 RU	< 5.00	< 5.00		
C[C@]12CC[C@@H]3c4ccc(OCC(=O)O)cc4CC[C@H]3[C@@H]1CCC2=O [Ligand 86467, 2-[[(8R,9S,13S,14S)-13-methyl-17-oxo-7,8,9,11,12,14,15,16-octahydro-6H-cyclopenta[a]phenanthren-3-yl]oxy]acetate]	< 5.00	54.9 RU		1.9 RU	0.8 RU	< 5.00	< 5.00	bound	
Cc1cc(-c2ccc(N3C(=O)CC4(CCCC4)C3=O)c(C)c2)ccc1N1C(=O)CC2(CCCC2)C1=O [Ligand 308835, 2-[4-[4-(1,3-dioxo-2-azaspiro[4.4]nonan-2-yl)-3-methylphenyl]-2-methylphenyl]-2-azaspiro[4.4]nonane-1,3-dione]	< 5.00	64.8 RU		7.1 RU	5.2 RU	< 5.00	< 5.00		
C1C[C@H]2NCC[C@@H]3NCC[C@H](N1)N32 [Ligand 81462]	< 5.00	57.2 RU	slower off rates	9.2 RU	6.5 RU	< 5.00	< 5.00		
CC[C@@]1(O)C(=O)OCc2c1cc1n(c2=O)Cc2cc3c(NC(=O)CN)cccc3nc2-1.Cl [Ligand 639174]		55.4 RU		2.3 RU	0.6 RU				7.52
Cc1ccc([N+](=O)[O-])cc1NC(=O)Nc1ccc(S(N)(=O)=O)cc1 [Ligand 146554, 1-(2-methyl-5-nitrophenyl)-3-(4-sulfamoylphenyl)urea]		63.4 RU		3.1 RU	0.8 RU	< 5.00			
